# According to ChEMBL document CHEMBL3885881, “DrugMatrix”:
# Organism: Rattus norvegicus
# Assay: DrugMatrix - Regimen: Daily Repeat
# Type: toxicity, organism-based, Sprague-Dawley
# Set-up: regimen Daily Repeat, gender Male, age 6-8 weeks
# Settings: in vivo, po, route oral GAVAGE, vehicle .5 % CMC; for ABSOLUTE BASOPHIL / ABSOLUTE EOSINOPHIL / ABSOLUTE LYMPHOCYTE / ABSOLUTE MONOCYTE / ABSOLUTE SEGMENTED NEUTROPHIL / BASOPHIL / EOSINOPHIL / ERYTHROCYTE COUNT / HEMATOCRIT / HEMOGLOBIN / LEUKOCYTE COUNT / LYMPHOCYTE / MEAN CORPUSCULAR HEMOGLOBIN / MEAN CORPUSCULAR HEMOGLOBIN CONCENTRATION / MEAN CORPUSCULAR VOLUME / MONOCYTE / NEUTROPHIL / NUCLEATED RED BLOOD CELLS / PLATELET COUNT: tissue Blood; for ALANINE AMINOTRANSFERASE / ALBUMIN / ALKALINE PHOSPHATASE / ASPARTATE AMINOTRANSFERASE / BLOOD UREA NITROGEN / CARBON DIOXIDE / CHLORIDE / CHOLESTEROL / CREATINE PHOSPHOKINASE / CREATININE / GLUCOSE / LACTATE DEHYDROGENASE / LIPASE / PHOSPHORUS / POTASSIUM / SODIUM / TOTAL BILIRUBIN / TOTAL PROTEIN / URIC ACID: tissue Plasma
# [1] = 0 mg/kg, 72 h, dose level Control, time 3 day
# [2] = 0 mg/kg, 120 h, dose level Control, time 5 day
# [3] = 4.5 mg/kg, 72 h, dose level Low, time 3 day
structure (smiles),measurement,setting,value
CC(C(=O)O)c1ccc(-c2ccccc2)c(F)c1 (centres undefined) [FLURBIPROFEN],ABSOLUTE BASOPHIL,[1],0 CELLS/uL
same,ABSOLUTE EOSINOPHIL,[1],222.83 CELLS/uL
same,ABSOLUTE LYMPHOCYTE,[1],14453 CELLS/uL
same,ABSOLUTE MONOCYTE,[1],0 CELLS/uL
same,ABSOLUTE SEGMENTED NEUTROPHIL,[1],1490.83 CELLS/uL
same,BASOPHIL,[1],0%
same,EOSINOPHIL,[1],1.33%
same,ERYTHROCYTE COUNT,[1],5.76 x10E6/uL
same,HEMATOCRIT,[1],36.52%
same,HEMOGLOBIN,[1],13.45 G/DL
same,LEUKOCYTE COUNT,[1],16.17 x10E3/uL
same,LYMPHOCYTE,[1],89.33%
same,MEAN CORPUSCULAR HEMOGLOBIN,[1],23.37 pg
same,MEAN CORPUSCULAR HEMOGLOBIN CONCENTRATION,[1],36.85 G/DL
same,MEAN CORPUSCULAR VOLUME,[1],63.47 fL
same,MONOCYTE,[1],0%
same,NEUTROPHIL,[1],9.33%
same,NUCLEATED RED BLOOD CELLS,[1],0 /100WBC
same,PLATELET COUNT,[1],1239.5 x10E3/uL
same,ALANINE AMINOTRANSFERASE,[1],43.83 u/L
same,ALBUMIN,[1],4.27 G/DL
same,ALKALINE PHOSPHATASE,[1],398.83 u/L
same,ASPARTATE AMINOTRANSFERASE,[1],81.17 u/L
same,BLOOD UREA NITROGEN,[1],17.67 mg/dL
same,CARBON DIOXIDE,[1],27.5 mmol/L
same,CHLORIDE,[1],99.17 MEQ/L
same,CHOLESTEROL,[1],74 mg/dL
same,CREATINE PHOSPHOKINASE,[1],331.5 u/L
same,CREATININE,[1],0.2 mg/dL
same,GLUCOSE,[1],171.33 mg/dL
same,LACTATE DEHYDROGENASE,[1],241.67 u/L
same,LIPASE,[1],9.5 u/L
same,PHOSPHORUS,[1],12.25 mg/dL
same,POTASSIUM,[1],6.33 MEQ/L
same,SODIUM,[1],141.28 MEQ/L
same,TOTAL BILIRUBIN,[1],0.15 mg/dL
same,TOTAL PROTEIN,[1],5.98 G/DL
same,URIC ACID,[1],1.63 mg/dL
same,ABSOLUTE BASOPHIL,[2],0 CELLS/uL
same,ABSOLUTE EOSINOPHIL,[2],148.67 CELLS/uL
same,ABSOLUTE LYMPHOCYTE,[2],16020.5 CELLS/uL
same,ABSOLUTE MONOCYTE,[2],29.17 CELLS/uL
same,ABSOLUTE SEGMENTED NEUTROPHIL,[2],1468.33 CELLS/uL
same,BASOPHIL,[2],0%
same,EOSINOPHIL,[2],1%
same,ERYTHROCYTE COUNT,[2],5.78 x10E6/uL
same,HEMATOCRIT,[2],35.77%
same,HEMOGLOBIN,[2],13.4 G/DL
same,LEUKOCYTE COUNT,[2],17.67 x10E3/uL
same,LYMPHOCYTE,[2],90.5%
same,MEAN CORPUSCULAR HEMOGLOBIN,[2],23.22 pg
same,MEAN CORPUSCULAR HEMOGLOBIN CONCENTRATION,[2],37.47 G/DL
same,MEAN CORPUSCULAR VOLUME,[2],61.92 fL
same,MONOCYTE,[2],0.17%
same,NEUTROPHIL,[2],8.33%
same,NUCLEATED RED BLOOD CELLS,[2],0.17 /100WBC
same,PLATELET COUNT,[2],1255.5 x10E3/uL
same,ALANINE AMINOTRANSFERASE,[2],46.5 u/L
same,ALBUMIN,[2],4.38 G/DL
same,ALKALINE PHOSPHATASE,[2],336 u/L
same,ASPARTATE AMINOTRANSFERASE,[2],76.5 u/L
same,BLOOD UREA NITROGEN,[2],20 mg/dL
same,CARBON DIOXIDE,[2],27.5 mmol/L
same,CHLORIDE,[2],101 MEQ/L
same,CHOLESTEROL,[2],71.33 mg/dL
same,CREATINE PHOSPHOKINASE,[2],231.83 u/L
same,CREATININE,[2],0.37 mg/dL
same,GLUCOSE,[2],168.83 mg/dL
same,LACTATE DEHYDROGENASE,[2],174 u/L
same,LIPASE,[2],8.67 u/L
same,PHOSPHORUS,[2],11.48 mg/dL
same,POTASSIUM,[2],6.82 MEQ/L
same,SODIUM,[2],143.8 MEQ/L
same,TOTAL BILIRUBIN,[2],0.2 mg/dL
same,TOTAL PROTEIN,[2],5.98 G/DL
same,URIC ACID,[2],1.83 mg/dL
same,ABSOLUTE BASOPHIL,[3],0 CELLS/uL
same,ABSOLUTE EOSINOPHIL,[3],292.33 CELLS/uL
same,ABSOLUTE LYMPHOCYTE,[3],14732.33 CELLS/uL
same,ABSOLUTE MONOCYTE,[3],0 CELLS/uL
same,ABSOLUTE SEGMENTED NEUTROPHIL,[3],2542 CELLS/uL
same,BASOPHIL,[3],0%
same,EOSINOPHIL,[3],1.67%
same,ERYTHROCYTE COUNT,[3],5.5 x10E6/uL
same,HEMATOCRIT,[3],34.7%
same,HEMOGLOBIN,[3],12.83 G/DL
same,LEUKOCYTE COUNT,[3],17.57 x10E3/uL
same,LYMPHOCYTE,[3],83.67%
same,MEAN CORPUSCULAR HEMOGLOBIN,[3],23.33 pg
same,MEAN CORPUSCULAR HEMOGLOBIN CONCENTRATION,[3],36.97 G/DL
same,MEAN CORPUSCULAR VOLUME,[3],63.03 fL
same,MONOCYTE,[3],0%
same,NEUTROPHIL,[3],14.67%
same,NUCLEATED RED BLOOD CELLS,[3],0 /100WBC
same,PLATELET COUNT,[3],1184.67 x10E3/uL
same,ALANINE AMINOTRANSFERASE,[3],49.67 u/L
same,ALBUMIN,[3],3.57 G/DL
same,ALKALINE PHOSPHATASE,[3],319 u/L
same,ASPARTATE AMINOTRANSFERASE,[3],69.33 u/L
same,BLOOD UREA NITROGEN,[3],13.33 mg/dL
same,CARBON DIOXIDE,[3],30 mmol/L
same,CHLORIDE,[3],99.67 MEQ/L
same,CHOLESTEROL,[3],69 mg/dL
same,CREATINE PHOSPHOKINASE,[3],219.67 u/L
same,CREATININE,[3],0.25 mg/dL
same,GLUCOSE,[3],168.33 mg/dL
same,LACTATE DEHYDROGENASE,[3],123.67 u/L
same,LIPASE,[3],8.33 u/L
same,PHOSPHORUS,[3],12.13 mg/dL
same,POTASSIUM,[3],6.57 MEQ/L
same,SODIUM,[3],143.2 MEQ/L
same,TOTAL BILIRUBIN,[3],0.23 mg/dL
same,TOTAL PROTEIN,[3],5.37 G/DL
same,URIC ACID,[3],1.77 mg/dL
